Reference: ChEMBL document CHEMBL3714751, “Diaminopyrimidines as P2X3 and P2X2/3 modulators” (2009)
Activity calls are given as the source filed them. The calls are words filed in the database; no cut-off is given here.

Each compound was assayed against T1, P2X purinoceptor 3 (Rattus norvegicus) (UniProt P49654) (assay: Antagonist activity against rat P2X3 receptor expressed in CHOK1 cells assessed as inhibition of alpha,beta-meATP-induced calcium response incubated for 20 mins by Fluo-3AM dye based FLIPR assay). Settings: CHO-K1.
T1 sequence (whole entry): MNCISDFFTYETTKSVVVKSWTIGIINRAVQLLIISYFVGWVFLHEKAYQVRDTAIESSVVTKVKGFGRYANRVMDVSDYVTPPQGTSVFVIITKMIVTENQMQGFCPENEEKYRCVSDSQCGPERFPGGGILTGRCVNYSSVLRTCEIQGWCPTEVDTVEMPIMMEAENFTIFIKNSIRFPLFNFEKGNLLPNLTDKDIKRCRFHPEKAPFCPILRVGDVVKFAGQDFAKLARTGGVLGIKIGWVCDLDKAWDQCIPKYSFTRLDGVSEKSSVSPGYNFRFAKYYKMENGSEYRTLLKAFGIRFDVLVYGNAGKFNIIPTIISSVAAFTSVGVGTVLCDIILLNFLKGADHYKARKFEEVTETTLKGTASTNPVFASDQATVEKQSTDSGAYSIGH
Format: functional, cell-based

inhibition | Structure (SMILES)
Active | COc1cc(C(C)C)c(Oc2cnc(NC(=O)CNC3CCCC3)nc2N)cc1I
Active | COc1cc(C(C)C)c(Oc2cnc(NC(=O)CNC3CCC(C)CC3)nc2N)cc1I (stereo not drawn)
Active | COc1cc(C(C)C)c(Oc2cnc(NC(=O)CNC3CCN(C)CC3)nc2N)cc1I
Active | COc1cc(C(C)C)c(Oc2cnc(NC(=O)CN3CCC(N)CC3)nc2N)cc1I
Active | COc1cc(C(C)C)c(Oc2cnc(NC(=O)CN3CCN(CCO)CC3)nc2N)cc1I
Active | COc1cc(C(C)C)c(Oc2cnc(NC(=O)CNCC3CC3)nc2N)cc1I
Active | COc1cc(C(C)C)c(Oc2cnc(NC(=O)CN3CCCCC3)nc2N)cc1I
Active | COc1cc(C(C)C)c(Oc2cnc(NC(=O)CN3CCC(C(C)=O)CC3)nc2N)cc1I
Active | COc1cc(C(C)C)c(Oc2cnc(NC(=O)CNC3CCC3)nc2N)cc1I
Active | C#Cc1cc(Oc2cnc(NC(=O)CN3CCN(C)CC3)nc2N)c(C(C)C)cc1OC
Active | COc1cc(C(C)C)c(Oc2cnc(NC(=O)CN(C)C3CCCCC3)nc2N)cc1I
Active | COc1cc(C(C)C)c(Oc2cnc(NC(=O)CN3CCN(CCCO)CC3)nc2N)cc1I
Active | COc1cc(C(C)C)c(Oc2cnc(NC(=O)CN3CC(C)OC(C)C3)nc2N)cc1I (stereo not drawn)
Active | COc1cc(C(C)C)c(Oc2cnc(NC(=O)CN(C)C)nc2N)cc1I
Active | COc1cc(C(C)C)c(Oc2cnc(NC(=O)CNC(C)(C)C)nc2N)cc1I
Active | CCN(CCCCO)CC(=O)Nc1ncc(Oc2cc(I)c(OC)cc2C(C)C)c(N)n1
Active | CCCNCC(=O)Nc1ncc(Oc2cc(I)c(OC)cc2C(C)C)c(N)n1
Active | COc1cc(C(C)C)c(Oc2cnc(NC(=O)CNC3CCCCC3)nc2N)cc1I
Active | COc1cc(C(C)C)c(Oc2cnc(NC(=O)CN3CCCC3)nc2N)cc1I
Active | COc1cc(C(C)C)c(Oc2cnc(NC(=O)CN3CCOCC3)nc2N)cc1I
Active | COCCNCC(=O)Nc1ncc(Oc2cc(I)c(OC)cc2C(C)C)c(N)n1
Active | COc1cc(C(C)C)c(Oc2cnc(NC(=O)CN3CCNCC3)nc2N)cc1I
Active | CCC(CC)NCC(=O)Nc1ncc(Oc2cc(I)c(OC)cc2C(C)C)c(N)n1
Active | COc1cc(C(C)C)c(Oc2cnc(NC(=O)CNCC(C)C)nc2N)cc1I
Active | COc1cc(C(C)C)c(Oc2cnc(NC(=O)CN3CCN(C)CC3)nc2N)cc1I
Active | CCCN(CCC)CC(=O)Nc1ncc(Oc2cc(I)c(OC)cc2C(C)C)c(N)n1

These compounds were tested on Canis familiaris (assay: Cmax in dog assessed as 5-(5-Iodo-2-iso-propyl-4-methoxy-phenoxy)-pyrimidine-2,4-diamine level at 0.127 mmol administered orally by gavage after 24 hrs by HPLC method). Settings: in vivo, po.
Format: ADME, organism-based, Canis lupus familiaris
Parameters: dose 0.127 mmol, route oral

Cmax [ng/mL] | Structure (SMILES)
120 | CCCN(CCC)CC(=O)Nc1ncc(Oc2cc(I)c(OC)cc2C(C)C)c(N)n1

What follows are compounds tested on Canis familiaris (assay: AUC in dog assessed as 5-(5-Iodo-2-iso-propyl-4-methoxy-phenoxy)-pyrimidine-2,4-diamine level at 0.127 mmol administered orally by gavage after 24 hrs by HPLC method). Settings: in vivo, po.
Format: ADME, organism-based, Canis lupus familiaris
Parameters: dose 0.127 mmol, time < 24 hr, route oral

AUC [ng·h/mL] | Structure (SMILES)
372 | CCCN(CCC)CC(=O)Nc1ncc(Oc2cc(I)c(OC)cc2C(C)C)c(N)n1
